From US20180042918A1, “RESPIRATORY INFECTION TREATING AGENT” (KYORIN PHARMACEUTICAL CO., LTD., priority 2015, published 2018)
Values after ≈ are worked out from the molar mass of the structure shown. Where two headings read alike, the source gives them in different places. Marks after values point to notes of the source that are not given here.

Assays:
S. pneumoniae ATCC49619 [1] = assay: microbe, parasite or virus in culture; format: cell-based; details: Streptococcus pneumoniae
[2] = tested on: M. catarrhalis (26 STRAINS); assay: Antibacterial activity against clinically isolated strains, MIC90; format: cell-based; details: Moraxella catarrhalis, 26 clinically isolated strains
Description: (§1) The antibacterial activities in vitro of the compound D, garenoxacin, and levofloxacin against each clinically isolated strain of Streptococcus pneumoniae, Moraxella catarrhalis, and Haemophilus influenzae were measured in accordance with a CLSI microdilution method or a CLSI agar dilution method. A MIC90 value was the minimum concentration in which the growth of 90% strain of all the measured strains was inhibited.

PSSP (26 STRAINS) = assay: as above; format: cell-based; details: Streptococcus pneumoniae, 26 clinically isolated strains
Description: as §1

[3] = tested on: PCG-LOW SENSITIVE S. pneumoniae (22 STRAINS); assay: as above; format: cell-based; details: Streptococcus pneumoniae, 22 clinically isolated strains
Description: as §1

[4] = tested on: H. influenzaes (26 STRAINS); assay: as above; format: cell-based; details: Haemophilus influenzae, 26 clinically isolated strains
Description: as §1

[5] = target: Topoisomerase IV (S. pneumoniae IID553) (Streptococcus pneumoniae serotype 4, UniProt P72525+Q59961); assay: Enzyme inhibitory activity, decatenation of kinetoplast DNA
S. aureus MS5935 = assay: Antibacterial activity against quinolone-resistant strain in vitro, CLSI dilution; format: cell-based; details: Staphylococcus aureus; S. aureus MS5935, PARENT STRAIN, gyrA None, grlA None
S. pneumoniae ST9941 = assay: microbe, parasite or virus in culture; format: cell-based; details: Streptococcus pneumoniae
E. coli ATCC25922 [6] = assay: microbe, parasite or virus in culture; format: cell-based; details: Escherichia coli
S. aureus ATCC29213 [7] = assay: Frequency of development of resistant bacteria; format: cell-based, Staphylococcus aureus; details: for development of resistant bacteria (in words): S. aureus ATCC29213, 4 to 16 × MIC; for FREQUENCY OF DEVELOPMENT OF RESISTANT BACTERIA (AVERAGE OF TWO MEASURED VALUES): about 70 hours
Description: (§2) S. aureus ATCC29213 is Staphylococcus aureus, S. pneumoniae ATCC49619 is Streptococcus pneumoniae, and E. coli ATCC25922 is Escherichia coli. […]
(§3) The frequency of development of resistant bacteria was calculated by dividing the number of colonies developed on an agar medium having each drug concentration by the number of initially inoculated bacteria.

S. aureus MS5935 4th = assay: microbe, parasite or virus in culture; format: cell-based; details: for MIC: Staphylococcus aureus, MS59354TH
S. pneumoniae ATCC49619 [8] = assay: Frequency of development of resistant bacteria; format: cell-based, Streptococcus pneumoniae; details: for FREQUENCY OF DEVELOPMENT OF RESISTANT BACTERIA (AVERAGE OF TWO MEASURED VALUES): about 70 hours
Description: as §2, §3

S. aureus MS5935 3rd = assay: microbe, parasite or virus in culture; format: cell-based; details: Staphylococcus aureus, MS59353RD
S. aureus ATCC29213 [9] = assay: MIC of strain used for resistance frequency test; format: cell-based; details: Staphylococcus aureus; S. aureus ATCC29213; read-out: MIC
S. pneumoniae GF9821 = assay: microbe, parasite or virus in culture; format: cell-based; details: Streptococcus pneumoniae
S. aureus MS5935 2nd = assay: microbe, parasite or virus in culture; format: cell-based; details: Staphylococcus aureus, MS59352ND
S. pneumoniae SN9981 = assay: microbe, parasite or virus in culture; format: cell-based; details: Streptococcus pneumoniae
S. pneumoniae SF9863 = assay: microbe, parasite or virus in culture; format: cell-based; details: Streptococcus pneumoniae
S. pneumoniae NF9884 = assay: microbe, parasite or virus in culture; format: cell-based; details: Streptococcus pneumoniae
E. coli ATCC25922 [10] = assay: Frequency of development of resistant bacteria; format: cell-based, Escherichia coli; details: for FREQUENCY OF DEVELOPMENT OF RESISTANT BACTERIA (AVERAGE OF TWO MEASURED VALUES): about 70 hours
Description: as §2, §3

[11] = target: QUINOLONE RESISTANT Topoisomerase IV (S. aureus) (Staphylococcus aureus, UniProt P0C1U9); assay: Enzyme inhibitory activity, decatenation of kinetoplast DNA; format: biochemical
Description: (§4) Agents Chemother. 45: 3544-3547 (2001). […] The measurement was performed in the same manner as in Test Example 3. Similarly, the inhibitory activities of ciproxacin, levofloxacin, and garenoxacin were measured. The results were compared.

[12] = target: Topoisomerase IV (S. aureus) (Staphylococcus aureus, UniProt P0C1S7+P0C1U9); assay: as above; format: biochemical
Description: as §4

[13] = target: DNA gyrase derived from S. pneumoniae IID553 (Streptococcus pneumoniae serotype 4, UniProt P0A4L9+P72524); assay: Enzyme inhibitory activity, supercoiling of relaxed pBR322
[14] = target: QUINOLONE RESISTANT DNA gyrase (quinolone-resistant S. aureus) (Staphylococcus aureus, UniProt P20831); assay: as above; format: biochemical
Description: as §4

[15] = target: DNA gyrase derived from S. aureus (Staphylococcus aureus, UniProt P0A0K8+P20831); assay: as above; format: biochemical
Description: as §4

S. pneumoniae CF9842 = assay: microbe, parasite or virus in culture; format: cell-based; details: Streptococcus pneumoniae
[16] = tested on: S. aureus MS5935 gyrA mutant; assay: microbe, parasite or virus in culture; format: cell-based; details: Staphylococcus aureus
S. aureus MS5935 1st = assay: microbe, parasite or virus in culture; format: cell-based; details: Staphylococcus aureus, MS59351ST
[17] = S. pneumoniae ATCC49619, 4 × MIC
[18] = S. pneumoniae ATCC49619, 8 × MIC
[19] = S. pneumoniae ATCC49619, 16 × MIC

SMILES | MIC (S. pneumoniae ATCC49619 [1]) | MIC90 [2] | MIC90 (PSSP (26 STRAINS)) | MIC90 [3] | MIC90 [4] | IC50 [5] | MIC (S. aureus MS5935) | MIC (S. pneumoniae ST9941) | MIC (E. coli ATCC25922 [6]) | development of resistant bacteria (in words) (S. aureus ATCC29213 [7]) | FREQUENCY OF DEVELOPMENT OF RESISTANT BACTERIA (AVERAGE OF TWO MEASURED VALUES) (S. aureus ATCC29213 [7]; S. aureus ATCC29213, 4 × MIC) | FREQUENCY OF DEVELOPMENT OF RESISTANT BACTERIA (AVERAGE OF TWO MEASURED VALUES) (S. aureus ATCC29213 [7]; S. aureus ATCC29213, 8 × MIC) | FREQUENCY OF DEVELOPMENT OF RESISTANT BACTERIA (AVERAGE OF TWO MEASURED VALUES) (S. aureus ATCC29213 [7]; S. aureus ATCC29213, 16 × MIC) | MIC (S. aureus MS5935 4th) | FREQUENCY OF DEVELOPMENT OF RESISTANT BACTERIA (AVERAGE OF TWO MEASURED VALUES) (S. pneumoniae ATCC49619 [8]; [17]) | FREQUENCY OF DEVELOPMENT OF RESISTANT BACTERIA (AVERAGE OF TWO MEASURED VALUES) (S. pneumoniae ATCC49619 [8]; [18]) | FREQUENCY OF DEVELOPMENT OF RESISTANT BACTERIA (AVERAGE OF TWO MEASURED VALUES) (S. pneumoniae ATCC49619 [8]; [19]) | MIC (S. aureus MS5935 3rd) | MIC (S. aureus ATCC29213 [9]) | MIC (S. pneumoniae GF9821) | also measured
COc1c(N2C[C@H](CNC3CC3)[C@H](F)C2)c(F)cc2c(=O)c(C(=O)O)cn(CCF)c12.Cl [Compound D, 7-[(3S,4S)-3-{(cyclopropylamino)methyl}-4-fluoropyrrolidine-1-yl]-6-fluoro-1-(2-fluoroethyl)-8-methoxy-4-oxo-1,4-dihydroquinoline-3-carboxylic acid hydrochloride] | 0.06 µg/mL | 0.06 µg/mL | 0.06 µg/mL | 0.06 µg/mL | 0.06 µg/mL | 2.73 µM | 0.015 µg/mL | 0.5 µg/mL | 0.06 µg/mL | not observed | <2.1 × 10^−9 | <2.1 × 10^−9 | <2.1 × 10^−9 | 2 µg/mL | <1.1 × 10^−8 | <1.1 × 10^−8 | <1.1 × 10^−8 | 0.5 µg/mL | 0.008 µg/mL | 0.125 µg/mL | potency (action strength) relative to the other quinolone compounds (S. aureus MS5935 4th; 4th step quadruple mutant S. aureus, from MIC): ≥ 16 times; development of resistant bacteria (in words) (S. pneumoniae ATCC49619 [8]; S. pneumoniae ATCC49619, 4 to 16 × MIC): not observed; MIC (S. aureus MS5935 2nd): 0.125 µg/mL; MIC (S. pneumoniae SN9981): 0.25 µg/mL; MIC (S. pneumoniae SF9863): 0.06 µg/mL; MIC (S. pneumoniae NF9884): 0.125 µg/mL; development of resistant bacteria (in words) (E. coli ATCC25922 [10]; E. coli ATCC25922, 4 to 16 × MIC): not observed; FREQUENCY OF DEVELOPMENT OF RESISTANT BACTERIA (AVERAGE OF TWO MEASURED VALUES) (E. coli ATCC25922 [10]; E. coli ATCC25922, 4 × MIC): <1.9 × 10^−9; FREQUENCY OF DEVELOPMENT OF RESISTANT BACTERIA (AVERAGE OF TWO MEASURED VALUES) (E. coli ATCC25922 [10]; E. coli ATCC25922, 8 × MIC): <1.9 × 10^−9; FREQUENCY OF DEVELOPMENT OF RESISTANT BACTERIA (AVERAGE OF TWO MEASURED VALUES) (E. coli ATCC25922 [10]; E. coli ATCC25922, 16 × MIC): <1.9 × 10^−9; IC50 ([11]; read-out: IC50 VALUE, QUINOLONE RESISTANT Topoisomerase IV): 5.88 µM; IC50 [12]: 1.53 µM; IC50 [13]: 12.6 µM; IC50 ([14]; read-out: IC50 VALUE, QUINOLONE RESISTANT DNA gyrase, average of three or average ± SD): 35.7 µM; IC50 [15]: 3.57 µM; MIC (S. pneumoniae CF9842): 0.06 µg/mL; MIC [16]: 0.03 µg/mL; MIC (S. aureus MS5935 1st): 0.03 µg/mL
C[C@H]1NCc2cc(-c3ccc4c(=O)c(C(=O)O)cn(C5CC5)c4c3OC(F)F)ccc21 [GRNX, garenoxacin] | 0.06 µg/mL (≈ 0.141 µM) | 0.015 µg/mL (≈ 0.0352 µM) | 0.06 µg/mL (≈ 0.141 µM) | 0.06 µg/mL (≈ 0.141 µM) | 0.015 µg/mL (≈ 0.0352 µM) | 5.16 µM | 0.015 µg/mL (≈ 0.0352 µM) | 2 µg/mL (≈ 4.69 µM) | 0.03 µg/mL (≈ 0.0704 µM) | developed | 8.2 × 10^−9* | <2.1 × 10^−9 | <2.1 × 10^−9 | 32 µg/mL (≈ 75 µM) | <1.1 × 10^−8 | <1.1 × 10^−8 | <1.1 × 10^−8 | 8 µg/mL (≈ 18.8 µM) | 0.015 µg/mL | 0.25 µg/mL (≈ 0.586 µM) | MIC (S. aureus MS5935 2nd): 2 µg/mL (≈ 4.69 µM); MIC (S. pneumoniae SN9981): 1 µg/mL (≈ 2.35 µM); MIC (S. pneumoniae SF9863): 0.25 µg/mL (≈ 0.586 µM); MIC (S. pneumoniae NF9884): 0.125 µg/mL (≈ 0.293 µM); FREQUENCY OF DEVELOPMENT OF RESISTANT BACTERIA (AVERAGE OF TWO MEASURED VALUES) (E. coli ATCC25922 [10]; E. coli ATCC25922, 4 × MIC): <1.9 × 10^−9; FREQUENCY OF DEVELOPMENT OF RESISTANT BACTERIA (AVERAGE OF TWO MEASURED VALUES) (E. coli ATCC25922 [10]; E. coli ATCC25922, 8 × MIC): <1.9 × 10^−9; FREQUENCY OF DEVELOPMENT OF RESISTANT BACTERIA (AVERAGE OF TWO MEASURED VALUES) (E. coli ATCC25922 [10]; E. coli ATCC25922, 16 × MIC): <1.9 × 10^−9; IC50 ([11]; read-out: IC50 VALUE, QUINOLONE RESISTANT Topoisomerase IV (converted)): 63.3 µM; IC50 ([12]; S. aureus enzyme, read-out: IC50 VALUE, Topoisomerase IV (converted)): 4.46 µM; IC50 [13]: 84.4 µM; IC50 ([14]; average of three or average ± SD, read-out: IC50 VALUE, QUINOLONE RESISTANT DNA gyrase (converted)): 985 µM; IC50 ([15]; S. aureus enzyme, average of three or average ± SD, read-out: IC50 VALUE, DNA gyrase (converted)): 25.8 µM; MIC (S. pneumoniae CF9842): 0.125 µg/mL (≈ 0.293 µM); MIC [16]: 0.06 µg/mL (≈ 0.141 µM); MIC (S. aureus MS5935 1st): 0.03 µg/mL (≈ 0.0704 µM)
